Data published in paper PMC8620242 (Journal of Advanced Research, 2021).

Biological target: nsp12 (Severe acute respiratory syndrome coronavirus 2, UniProt P0DTD1)
Test: SPR binding to nsp12
Design: species or system SARS-CoV-2

CC1(C)[C@@H](O)CC[C@]2(C)[C@H]3C(=O)C=C4[C@@H]5C[C@@](C)(C(=O)O)CC[C@]5(C)CC[C@@]4(C)[C@]3(C)CC[C@@H]12 [GA, glycyrrhetinic acid]
Kd: 416 µM
